Source: patent US12036212B2, “Enhancement of tumor response to chemotherapy by activation of the asmase/ceramide pathway through timed administration of a short-acting anti-angiogenic agent” (Memorial Sloan-Kettering Cancer Center, priority 2014, dated 2024)

Assays:
[1] = system: HCT116 human colorectal cancer xenografts; assay: Endothelial apoptosis in vivo (TUNEL/MECA-32) in HCT116 xenografts; set-up: species or system mice; conditions: single dose paclitaxel 25 mg/kg, 4 hours
Method: Human HCT-116 colon cancer cells and MCA/129 murine sarcoma cells were maintained in DMEM with 10% fetal bovine serum, with 100 u/ml penicillin and 100 μg/ml streptomycin. Cells were grown as monolayers in 75 cm^2 culture flasks at 37° C. in 10% CO2 humidified incubators. Cells were trypsinized, washed in PBS and diluted in Matrigel/PBS solution (40:60 v/v) for HCT-116 xenografts or in PBS for MCA/129 syngeneic tumor grafts. Cells (3×10^6 for HCT-116 or 1×10^6 for MCA129) were injected subcutaneously into the flanks of mice (Garcia-Barros et al. Science 300, 1155-1159, 2003).
To evaluate acute endothelial apoptosis, tumors were grown in mice and treated with drugs as above. After the first treatment, tumors were harvested at specified times, placed into formalin overnight and paraffin-embedded the next day. Paraffin-embedded sections (5 μm) were co-stained for apoptotic endothelium using TUNEL and the endothelial-specific monoclonal antibody MECA-32 (Developmental Studies Hybridoma Bank, developed under the auspices of the NICHD and maintained by The University of Iowa, IA). […]
To further test the ability of cisplatin to affect endothelial cell apoptosis and tumor response in vivo, effects of cisplatin on tumor growth were evaluated.

CRM = CRM detection by confocal microscopy in BAEC; format: cell-based, bovine; conditions: paclitaxel 100 nM
Method: BAEC were grown on CC2-treated chamber slides (Nalge Nunc International Corp., Naperville, USA) and then exposed to etoposide or paclitaxel with or without pre-incubation with Nystatin (30 μg/ml, Sigma) for 30 min. BAEC were then washed in cold PBS, fixed for 15 min in fresh 2% paraformaldehyde, washed 2× with cold PBS, and blocked with 5% FBS in PBS for 20 min at room temperature. Cells were stained with anti-ceramide MID 15B4 IgM (Alexis Corporation) at 1:50 dilution for 1 hour at room temperature, washed 3× in PBS, and thereafter with Texas Red-conjugated secondary antibody (Jackson Immunoresearch Laboratories, Inc.) at 1:500 dilution for 1 hour at room temperature. Nonspecific fluorescence was excluded using isotype control IgM (BD Biosciences). Cells were washed 3×, stained with DAPI and mounted in 0.1% paraphenylenediamine. Fluorescence was detected using Leica TCS SP2 AOBS 1- and 2-photon laser scanning confocal (DMRXA2 upright stand) microscope coupled with MetaMorph 7.5 (Molecular Devices). Number of CRMs in membranes of endothelial cells was analyzed using MetaMorph 7.5 software that allowed outlining of regions containing CRMs based on two criteria: 1) CRM size (≥500 nm); 2) Intensity of ceramide staining. Mice: asmase^+/+ and asmase^−/− mice, maintained in a SCID background, were propagated using heterozygous breeding pairs and genotyped as previously described (Santana et al. Cell, 86, 189-199, 1996; Grassme et al. Nat Med 9, 322-330 (2003). 6-12 week-old C57BL6/SV129 male mice, purchased from The Jackson Laboratory (Bar Harbor).
To test the effect of chemotherapy on ASMase signaling and ceramide production, BAEC were treated with paclitaxel (100 nM) and ASMase activity was determined by radioenzymatic assay (Rotolo et al, infra) using [^14C-methylcholine] sphingomyelin (Amersham) as substrate (FIG. 1A). Induction of ASMase activity was observed within 5 minutes after treatment, and the activation continued for 30 minutes. Ceramide generation was monitored using the diacylglycerol kinase assay (Stancevic et al. PLoS ONE 8, e69025, 2013). […]

human cells = conditions: cited from earlier work
BAEC = assay: Apoptosis in vitro (Hoechst nuclear staining) in BAEC; format: cell-based, bovine; conditions: bovine endothelial cells; cisplatin up to 50 μM; etoposide 50 μM alone, 8 hours
Method: Apoptosis was assessed in vitro by examining morphologic changes in nuclear chromatin using bis-benzimide trihydrochloride (Hoechst #33258; Sigma-Aldrich, Milwaukee WI). BAEC and HCAEC monolayer cultures were first detached using 0.25% trypsin and 0.02% EDTA in HBSS and then combined with the floating population of cells. The cell pellet was washed in PBS, resuspended in 3% paraformaldehyde, and incubated for 10 min at 22° C. Following the removal of fixative, cells were resuspended in PBS containing 8 μg/ml of Hoechst-33258. Following a 15-min incubation at 22° C., cells were placed on a glass slide, and scored for the incidence of apoptotic chromatin changes using fluorescence microscope.
Since the ASMase/ceramide pathway is known to play a critical role in endothelial injury and dysfunction, BAEC and HCAEC were treated with paclitaxel (100 nM), etoposide (50 μM), and cisplatin (0.1-50 μM), and endothelial apoptosis was assessed.
To set the basis for experiments involving evaluation of anti-angiogenic therapy in combination with chemotherapy, and the role of ASMase/ceramide pathway in this process, the effects of various factors on the chemotherapy induced cell death were assessed. BAEC were pre-incubated for 30 min with bFGF (2 ng/mL), VEGF (2 ng/mL) or nystatin (30 μg/mL) prior to treatment with etoposide (50 μM), and apoptosis was evaluated after 8 hours using bis-benzamide trihydrochloride staining (FIG. 3).

| SMILES | Tumor endothelial apoptosis ([1]; SCID asmase+/+) | Tumor endothelial apoptosis ([1]; SCID asmase−/−) | CRM formation peak time (CRM) [min] | CRM formation remained elevated for (CRM) [min] | ASMase (human cells) | Apoptosis (human cells) | Apoptotic response (BAEC) |
| --- | --- | --- | --- | --- | --- | --- | --- |
| CC(=O)O[C@H]1C(=O)[C@@]2(C)[C@H]([C@H](OC(=O)c3ccccc3)[C@]3(O)C[C@H](OC(=O)[C@H](O)[C@@H](NC(=O)c4ccccc4)c4ccccc4)C(C)=C1C3(C)C)[C@]1(OC(C)=O)CO[C@@H]1C[C@@H]2O [paclitaxel] | robust endothelial apoptosis | resistant to chemotherapy-induced endothelial cell apoptosis | 5 | 30 | – | – | – |
| N.N.[Cl][Pt][Cl] [cisplatin] | – | – | – | – | increase ASMase | induce apoptosis | failed to trigger an appropriate apoptotic response |
